Assay results published in US9670208B2, “Serine/threonine kinase inhibitors” (Array BioPharma Inc., priority 2013, dated 2017).

Experiments:
[1] = target: human ERK-2 (Mitogen Activated Kinase 1) (Homo sapiens (Human), UniProt P28482); assay: ERK-2 Enzymatic Assay; assay type: biochemical; conditions: ERK-2 enzyme, 25 μM ATP; single assay or mean of multiple assays; read-out: Biological Example 1 IC50
[2] = tested on: PMA-stimulated P90RSK(Ser380) phosphorylation in HepG2 cells; assay: Cellular P90RSK(Ser380) Phosphorylation Assay; assay type: cell-based; conditions: Homo sapiens, 1.5 hours compound incubation, PMA 100 ng/mL, normalized to GAPDH, single assay or mean of multiple assays, read-out: Biological Example 2 IC50
Description: Inhibition of PMA-stimulated P90RSK(Ser380) phosphorylation was determined by the following in vitro cellular mechanistic assay, which comprises incubating cells with a compound for 1.5 hours and quantifying fluorescent pP90RSK(Ser380) signal on fixed cells and normalizing to GAPDH signal.
HepG2 cells were obtained from ATCC (Manassas, Va.) and grown in DMEM supplemented with 10% fetal bovine serum. Cells were plated in 96-well plates at 35,000 cells/well and allowed to attach overnight at 37° C./5% CO2. Diluted compounds were then added at a final concentration of 0.5% DMSO. After 1.5 hours compound incubation, cells were stimulated with the addition of phorbol 12-myristate 13-acetate (“PMA”) at a final concentration of 100 ng/mL; the PMA stimulation was a 30-minute incubation at 37° C./5% CO2. After the 30-minute PMA stimulation, cells were washed with phosphate buffered saline (“PBS”) and fixed in 3.7% formaldehyde in PBS at room temperature for 15-20 minutes. This was followed by another wash in PBS and then permeabilization in 100% MeOH at room temperature for 10-15 minutes. Following the permeabilization incubation, cells were washed in PBS/0.05% Tween-20, followed by a block in Odyssey blocking buffer (LI-COR Biosciences) for at least 1 hour. Antibodies to phosphorylated P90RSK(Ser380) (Cell Signaling #9335, rabbit monoclonal) and GAPDH (Fitzgerald 10R-G109a, mouse monoclonal) were added to the cells and incubated overnight at 4° C. pP90RSK(Ser380) antibody was used at a 1:250 dilution; GAPDH was used at a 1:10,000 dilution. After washing with PBS/0.05% Tween-20, the cells were incubated with fluorescently-labeled secondary antibodies (Anti-rabbit-Alexa Flour680, Invitrogen Cat#A21109; Anti-mouse-IRDye800CW, Rockland Inc. Cat#610-131-121) for 1 hour. Both secondary antibodies were used at a 1:1000 dilution. Cells were then washed and analyzed for fluorescence at both wavelengths using the Odyssey Infrared Imaging System (LI-COR Biosciences). Phosphorylated P90RSK(Ser380) signal was normalized to GAPDH signal.

human ERK-2 (Mitogen Activated Kinase 1), sequence (P28482 8-360): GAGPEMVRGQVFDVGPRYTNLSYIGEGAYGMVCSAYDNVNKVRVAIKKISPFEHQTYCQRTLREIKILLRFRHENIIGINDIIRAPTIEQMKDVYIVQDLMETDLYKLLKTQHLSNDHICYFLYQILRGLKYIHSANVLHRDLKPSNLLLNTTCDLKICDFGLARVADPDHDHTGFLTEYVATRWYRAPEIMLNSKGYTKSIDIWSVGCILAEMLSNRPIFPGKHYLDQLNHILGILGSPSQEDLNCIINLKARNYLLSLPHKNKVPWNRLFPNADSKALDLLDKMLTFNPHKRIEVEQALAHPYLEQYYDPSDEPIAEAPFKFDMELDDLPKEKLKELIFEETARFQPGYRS

IC50 [1]	SMILES	IC50 [2]
2.8 nM	Cn1nccc1Nc1nccc(-c2ccn3c(CC(C)(C)C)nnc3c2)n1 [Example 150, N-(1-methyl-1H-pyrazol-5-yl)-4-(3-neopentyl-[1,2,4]triazolo[4,3-a]pyridin-7-yl)pyrimidin-2-amine]	39.2 nM
0.8 nM	CCOc1ccc(Cc2nnc3cc(-c4ccnc(Nc5ccnn5C)n4)ccn23)cn1 [Example 493, 4-(3-((6-ethoxypyridin-3-yl)methyl)-[1,2,4]triazolo[4,3-a]pyridin-7-yl)-N-(1-methyl-1H-pyrazol-5-yl)pyrimidin-2-amine]	117 nM
0.6 nM	Fc1ccc(Cc2nnc3cc(-c4ccnc(NC5CCOCC5)n4)ccn23)cc1 [Example 402, 4-(3-(4-fluorobenzyl)-[1,2,4]triazolo[4,3-a]pyridin-7-yl)-N-(tetrahydro-2H-pyran-4-yl)pyrimidin-2-amine]	27.4 nM
2.9 nM	CCOCCc1nnc2cc(-c3ccnc(Nc4ccnn4C)n3)ccn12 [Example 111, 4-(3-(2-ethoxyethyl)-[1,2,4]triazolo[4,3-a]pyridin-7-yl)-N-(1-methyl-1H-pyrazol-5-yl)pyrimidin-2-amine]	27.9 nM
0.9 nM	Cn1nccc1Nc1nccc(-c2ccn3c(CC4CCC(F)(F)CC4)nnc3c2)n1 [Example 317, 4-(3-((4,4-difluorocyclohexyl)methyl)-[1,2,4]triazolo[4,3-a]pyridin-7-yl)-N-(1-methyl-1H-pyrazol-5-yl)pyrimidin-2-amine]	35.8 nM
3.3 nM	COc1ccc(Cc2nnc3cc(-c4ccnc(Nc5ccnn5C)n4)ccn23)cc1F [Example 40, 4-(3-(3-fluoro-4-methoxybenzyl)-[1,2,4]triazolo[4,3-a]pyridin-7-yl)-N-(1-methyl-1H-pyrazol-5-yl)pyrimidin-2-amine]	6.5 nM
2.8 nM	COc1ccc(Cc2nnc3cc(-c4nc(NC5CCOCC5)ncc4F)ccn23)cc1 [Example 123, 5-fluoro-4-(3-(4-methoxybenzyl)-[1,2,4]triazolo[4,3-a]pyridin-7-yl)-N-(tetrahydro-2H-pyran-4-yl)pyrimidin-2-amine]	25.6 nM
5.7 nM	CCC=Cc1nnc2cc(-c3ccnc(Nc4ccnn4C)n3)ccn12 (stereo in doubt) [Example 258, (E)-4-(3-(but-1-en-1-yl)-[1,2,4]triazolo[4,3-a]pyridin-7-yl)-N-(1-methyl-1H-pyrazol-5-yl)pyrimidin-2-amine]	178 nM
3.4 nM	CN1CC(Oc2c(F)cccc2F)CC(c2nnc3cc(-c4ccnc(Nc5ccnn5C)n4)ccn23)C1 (stereo not drawn) [Example 113, 4-(3-(5-(2,6-difluorophenoxy)-1-methylpiperidin-3-yl)-[1,2,4]triazolo[4,3-a]pyridin-7-yl)-N-(1-methyl-1H-pyrazol-5-yl)pyrimidin-2-amine]	38 nM
0.6 nM	Cn1nccc1Nc1cc(-c2ccn3c(CC(C)(C)C)nnc3c2)ccn1 [Example 279, N-(1-methyl-1H-pyrazol-5-yl)-4-(3-neopentyl-[1,2,4]triazolo[4,3-a]pyridin-7-yl)pyridin-2-amine]	51.9 nM
2.8 nM	CC[C@H](C)Cc1nnc2cc(-c3ccnc(Nc4ccnn4C)n3)ccn12 [Example 115, (S)—N-(1-methyl-1H-pyrazol-5-yl)-4-(3-(2-methylbutyl)-[1,2,4]triazolo[4,3-a]pyridin-7-yl)pyrimidin-2-amine]	8.3 nM
0.4 nM	Cn1nccc1Nc1cc(-c2ccn3c(CC4CC4)nnc3c2)ccn1 [Example 295, 4-(3-(cyclopropylmethyl)-[1,2,4]triazolo[4,3-a]pyridin-7-yl)-N-(1-methyl-1H-pyrazol-5-yl)pyridin-2-amine]	117 nM
2.6 nM	Cn1nccc1Nc1nccc(-c2ccn3c(Cc4cccc(F)c4F)nnc3c2)n1 [Example 51, 4-(3-(2,3-difluorobenzyl)-[1,2,4]triazolo[4,3-a]pyridin-7-yl)-N-(1-methyl-1H-pyrazol-5-yl)pyrimidin-2-amine]	8.9 nM
0.9 nM	Cn1nccc1Nc1cc(-c2ccn3c([C@H](O)Cc4ccccc4)nnc3c2)ccn1 [Example 121, (R)-1-(7-(2-((1-methyl-1H-pyrazol-5-yl)amino)pyridin-4-yl)-[1,2,4]triazolo[4,3-a]pyridin-3-yl)-2-phenylethanol]	34.7 nM
0.8 nM	c1ccc(Cc2nnc3cc(-c4ccnc(NC5CCOCC5)n4)ccn23)nc1 [Example 278, 4-(3-(pyridin-2-ylmethyl)-[1,2,4]triazolo[4,3-a]pyridin-7-yl)-N-(tetrahydro-2H-pyran-4-yl)pyrimidin-2-amine]	67.6 nM
2.8 nM	Cn1nccc1Nc1nccc(-c2ccn3c(Cc4ccc(F)cc4F)nnc3c2)n1 [Example 67, 4-(3-(2,4-difluorobenzyl)-[1,2,4]triazolo[4,3-a]pyridin-7-yl)-N-(1-methyl-1H-pyrazol-5-yl)pyrimidin-2-amine]	7.5 nM
2.7 nM	CC(C)Cc1nnc2cc(-c3ccnc(Nc4ccnn4C)n3)ccn12 [Example 169, 4-(3-isobutyl-[1,2,4]triazolo[4,3-a]pyridin-7-yl)-N-(1-methyl-1H-pyrazol-5-yl)pyrimidin-2-amine]	30 nM
2.4 nM	Cn1nccc1Nc1nccc(-c2ccn3c(CC4CC5CCC4C5)nnc3c2)n1 (stereo not drawn) [Example 163, 4-(3-(bicyclo[2.2.1]heptan-2-ylmethyl)-[1,2,4]triazolo[4,3-a]pyridin-7-yl)-N-(1-methyl-1H-pyrazol-5-yl)pyrimidin-2-amine]	20.7 nM
3.3 nM	Cn1nccc1Nc1cc(-c2ccn3c(CC4(C(F)(F)F)CC4)nnc3c2)ccn1 [Example 396, N-(1-methyl-1H-pyrazol-5-yl)-4-(3-((1-(trifluoromethyl)cyclopropyl)methyl)-[1,2,4]triazolo[4,3-a]pyridin-7-yl)pyridin-2-amine]	35.4 nM
1.5 nM	Cn1nccc1Nc1nccc(-c2ccn3c(Cc4cccc(-c5ccccc5)n4)nnc3c2)n1 [Example 275, N-(1-methyl-1H-pyrazol-5-yl)-4-(3-((6-phenylpyridin-2-yl)methyl)-[1,2,4]triazolo[4,3-a]pyridin-7-yl)pyrimidin-2-amine]	20 nM
17 nM	Fc1c(-c2ccnc(NC3CCOCC3)c2)ccn2c(Cc3ccc(Cl)cc3)nnc12 [Example 112, 4-(3-(4-chlorobenzyl)-8-fluoro-[1,2,4]triazolo[4,3-a]pyridin-7-yl)-N-(tetrahydro-2H-pyran-4-yl)pyridin-2-amine]	862 nM
24.9 nM	CO[C@@H](c1ccccc1)c1nnc2cc(-c3ccnc(NC4CCOCC4)n3)ccn12 [Example 195, (S)-4-(3-(methoxy(phenyl)methyl)-[1,2,4]triazolo[4,3-a]pyridin-7-yl)-N-(tetrahydro-2H-pyran-4-yl)pyrimidin-2-amine]	39.7 nM
11 nM	Cn1nccc1Nc1nccc(-c2ccn3cnnc3c2)n1 [Example 411, 4-([1,2,4]triazolo[4,3-a]pyridin-7-yl)-N-(1-methyl-1H-pyrazol-5-yl)pyrimidin-2-amine]	607 nM
6 nM	Cn1nccc1Nc1nccc(-c2ccn3c(C4OCCc5ccccc54)nnc3c2)n1 (stereo not drawn) [Example 192, 4-(3-(isochroman-1-yl)-[1,2,4]triazolo[4,3-a]pyridin-7-yl)-N-(1-methyl-1H-pyrazol-5-yl)pyrimidin-2-amine]	37.5 nM
2.4 nM	Cn1nccc1Nc1nccc(-c2ccn3c(CC45CC6CC(CC(C6)C4)C5)nnc3c2)n1 [Example 379, 4-(3-((1s,3s)-adamantan-1-ylmethyl)-[1,2,4]triazolo[4,3-a]pyridin-7-yl)-N-(1-methyl-1H-pyrazol-5-yl)pyrimidin-2-amine]	24.7 nM
0.8 nM	COc1ccc(Cc2nnc3cc(-c4ccnc(Nc5ccnn5C)n4)ccn23)cc1 [Example 49, 4-(3-(4-methoxybenzyl)-[1,2,4]triazolo[4,3-a]pyridin-7-yl)-N-(1-methyl-1H-pyrazol-5-yl)pyrimidin-2-amine]	6.6 nM
0.9 nM	Cc1ccnc(Cc2nnc3cc(-c4ccnc(Nc5ccnn5C)n4)ccn23)c1 [Example 276, N-(1-methyl-1H-pyrazol-5-yl)-4-(3-((4-methylpyridin-2-yl)methyl)-[1,2,4]triazolo[4,3-a]pyridin-7-yl)pyrimidin-2-amine]	51.7 nM
